Results as given in PMC5577105, “A New Chimeric Natriuretic Peptide, CNAAC, for the Treatment of Left Ventricular Dysfunction after Myocardial Infarction” (Scientific Reports, 2017).

Tests used:
[1] = system: myocardial infarction rats (left anterior descending coronary artery ligation); experiment: Cardiac hemodynamics after myocardial infarction; format: in vivo, rat; conditions: MI rats, NP 20 nmol/kg i.p. every 2 days for 4 weeks, anesthetized, LV catheter, mean ± SEM, n = 6; for +dp/dtmax / −dp/dtmax: in mmHg/s
Procedure: (§1) The Sham and MI animal model were established as described by Johns TN et al.[24], [25] […] The chest was closed immediately. Only a thoracotomy and closure were performed in the sham group. From the day of surgery, 0.85% NaCl or NPs (20 nmol/kg) were administered to these groups (i.p), one injection every two days and lasted for four weeks. Four weeks later, the cardiac function was measured by Doppler echocardiography under anesthesia with pentobarbital sodium (40 mg/kg i.p.). A 12 MHz linear probe (Vevo2100, VisualSonics, Inc., CAN) was used to perform the transthoracic echocardiography. Left ventricular (LV) ejection fraction (EF), LV fraction shortening (FS), LV end diastolic diameter (LVEDd), and left ventricular end systolic diameter (LVESd) were measured. All examinations were performed in a blinded state.
(§2) The day after echocardiography was performed; rats in each group were weighed and anesthetized via a peritoneal injection of pentobarbital sodium (40 mg/kg i.p.). Supplemental doses of sodium pentobarbital were given when needed to maintain uniform anesthesia. A micro catheter was inserted into the left ventricle through the right […], and left ventricular systolic pressure (LVSP), left ventricular end diastolic pressure (LVEDP), and ± dp/dtmax were recorded by the BL-420F BioData Acquisition & Analysis Systems (TME Technology Co, Ltd, Chengdu, China). At the end of the experiment, blood was sampled and the following parameters were recorded: heart weight (HW), left ventricle weight (LVW), and lung weight (LW).

[2] = system: myocardial infarction rats (left anterior descending coronary artery ligation); experiment: Serum humoral factors by ELISA after myocardial infarction; format: in vivo; conditions: NP 20 nmol/kg i.p. every 2 days for 4 weeks, rat ELISA, n = 6
Procedure: as §1, with “0.85% NaCl; 20 nmol/kg·2d; n = 6). The Sham” for “The Sham”, “blinded state. Blood samples were centrifuged (4000 rpm, 15 min) and the serum was separated. Serum BNP, Ang II, ALD, ET-1, cGMP levels were detected with rat ELISA kits (Lianshuo, Shanghai, China).” for “blinded state.”

[3] = system: myocardial infarction rats (left anterior descending coronary artery ligation); experiment: Tissue weights / cardiac hypertrophy after myocardial infarction; format: in vivo, rat; conditions: MI rats, NP 20 nmol/kg i.p. every 2 days for 4 weeks; mean ± SEM, n = 6
Procedure: as §1, §2

[4] = rat, in vivo, iv
Procedure: To determine the metabolic status of NPs in circulation, blood was collected from rats after a bolus injection of NPs. Rats were anesthetized with pentobarbital sodium (40 mg/kg i.p). One microcatheter was inserted into the left jugular vein to administer NPs, and another one was inserted into the right carotid artery to collect blood. After the surgery was completed, rats were allowed to stabilize for 15 min. Human ANP, CNP, VNP, or CNAAC at a concentration of 40 nmol/kg was administered in a bolus fashion (0.1 ml). Blood (0.5 ml) was sampled 5, 10, 20, and 30 min after the bolus injection. The samples from the plasma were analyzed using LT-20AT High-Performance-Liquid-Chromatography (HPLC) (Shimadzu, Tokyo, Japan). A linear gradient (Buffer A: acetonitrile with 0.05% trifluoroacetic acid; Buffer B: double distilled water with 0.05% trifluoroacetic acid)[36] was used for both analyses to separate peptides on an Inertsil OSD-3 (250 mm × 4.6 mm, 5 µm) chromatographic column (Shimadzu, Tokyo, Japan) and a Water Quatro-premier tandem quadrupole mass spectrometry and Alliance 2695 chromatographic system (Waters, Milford, Massachusetts, USA). Peak areas have been calculated with the Masslynx 4.1 software from Waters. […] Each experiment was conducted in duplicate, whereby duplicates are defined as two different vials.

[5] = set-up: method as in PMID 18205700; conditions: in circulation; cited from earlier work

Substance | Heart rate [1] | LVEDP [1] | LVSP [1] | +dp/dtmax [1] | −dp/dtmax [1] | serum level of Ang II, change vs. MI group [2] | serum level of ET-1, change vs. MI group [2] | serum level of cGMP, change vs. MI group [2] | BW (body weight) [3] | HW (heart weight) [3] | LVW (left ventricular weight) [3] | LW (lung weight) [3] | serum level of ALD, change vs. MI group [2] | NP remaining at 10 min [4] | NP remaining at 20 min [4] | NP remaining at 30 min [4] | circulating half-life [5]
C-type natriuretic peptide [CNP] | 443 ± 21 bpm | 6.5 ± 1.5 mm Hg | 122.7 ± 4.8 mm Hg | 4025 ± 289 | 3917 ± 250 | decreased | decreased | increased | 347 ± 10 g | 1072 ± 84 mg | 492 ± 24 mg | 2190 ± 149 mg |  |  |  |  | 
atrial natriuretic peptide [ANP] | 437 ± 15 bpm | 7.2 ± 1.8 mm Hg | 112.5 ± 3.9 mm Hg | 3651 ± 320 | 3424 ± 453 | decreased | decreased | increased | 362 ± 8 g | 1010 ± 39 mg | 492 ± 24 mg | 2094 ± 188 mg | decreased | 32.7% | Less than 10% | completely degraded | 
brain natriuretic peptide [BNP] |  |  |  |  |  |  |  |  |  |  |  |  |  |  |  |  | approximately 23 min
